We go through ten compounds from patent US9428564B2, “Muscle function enhancing peptide” (Universitatsklinikum Heidelberg, priority 2009, dated 2016).

Like-named read-outs stand apart in the source and are kept apart here. Where a SMILES comes first, the peptide text is derived from it. Where no end group is shown, it is not given here.

The subject of data set [1] is permeabilized cardiomyocytes. Kind of data set: Ca2+-spark frequency in β-escin permeabilized cardiomyocytes. Format: cell-based, rabbit. The procedure:
Adult ventricular rabbit cardiomyocytes were isolated from four different animals as previously described (Loughrey C. M. et al., 2004, J. Physiol. 556:919-934) and permeabilized using β-escin (0.1 mg/ml). The permeabilized cells were incubated for 1 minute with rhodamine-labeled human S100A1 protein (0.1 μM) or FITC-labeled S100A1 C-terminal 20-mer peptide (0.1 μM) fused to a hydrophilic linker (amino acids 75 to 94 of human S100A1 fused to D-K-D-D-P-P (SEQ ID NO: 354)). Cells were monitored using a Bio-Rad 2000 laser scanning confocal microscope (LSCM). A striated staining pattern can be observed that resembles the ryanodine staining pattern (FIG. 4).
Isolated cardiomyocytes were perfused with a mock intracellular solution and permeabilized using β-escin (0.1 mg/ml). Fluo-3 free acid (10 μM) present in the perfusing solution was excited at 488 nm (Kr-laser) and measured at >515 nm applying epifluorescence optics of an inverted microscope with a ×60-1.2 NA water-immersion objective lens. Fluorescence was acquired in line scan mode at 2 ms line^−1; pixel dimension was 0.3 μm (512 pixels scan^−1; zoom=1.4). The scanning laser line orientated parallel with the long axis and placed approximately equidistant between the outer edge of the cell and the nucleus/nuclei, to ensure the nuclear area was not included in the scan line. To enable this trace to be converted to free calcium concentration ([Ca^2+]) a series of calibration solutions were used at the end of each Ca^2+-spark measurement period incorporating 10 mM EGTA. In all experiments concerning Ca^2+-sparks, the [Ca^2+] in the test solution was 145-160 nM. Ca^2+-sparks recorded in Fluo-3-containing solutions were quantified using an automated detection and measurement algorithm. All Ca^2+-spark measurements were made within 7-8 min of cell permeabilization. This time was standardized to minimize loss of soluble proteins. S100A1 protein or S100A1-ct peptide was applied in mock solution using a gravity-fed perfusion system. […]

Data set [2] relates to isolated rat ventricular cardiomyocytes. Format: cell-based. Conditions: for inotropic effect (calcium transients): basal conditions, intact field-stimulated cardiomyocytes; for inotropic effect (calcium transients) under βAR stimulation: β-AR stimulated, 10^−9 M Isoproterenol; for effect on calcium transient amplitudes: field-stimulated (1 Hz) isolated rat ventricular cardiomyocytes, FIG. 25.

In data set [3] the test system is intact rat ventricular cardiomyocytes. The format is cell-based. Conditions: not told. The source says: Equivalent bioactivity of native human S100A1 protein and the 20-mer C-terminal peptide was shown by the inventors in chemically permeabilized cardiac and skeletal muscle cell preparations enabling intracellular access and regulation of RyR2 and RyR1 function. FIG. 4 depicts a similar intracellular binding pattern for rhodamine-labeled recombinant human S100A1 protein (10415 Mw) (FIG. 4A/B) and the 20-mer FITC-labeled synthetic S100A1 C-terminal peptide (2258 Mw) (FIG. 4C/D).
S100A1ct6/11 refers to the peptide D-K-D-D-P-P-Y-V-V-L-V-A-A-L-T-V-A (SEQ ID NO: 372), wherein the sequence D-K-D-D-P-P (SEQ ID NO: 354) is a hydrophilic motif and the sequence Y-V-V-L-V-A-A-L-T-V-A (SEQ ID NO: 390) are amino acids 75 to 85 of the human S100A1 protein.
FITC-labeled S100A1ct6/11 was incubated with intact rat ventricular cardiomyocytes for 15 minutes before the cells were monitored using confocal laser scanning microscopy. Endogenous S100A1 protein was stained using a conventional immunofluorescence protocol.

Turning to “S100A1 C-terminal 20-mer peptide fused to a hydrophilic linker: amino acids 75 to 94 of human S100A1 fused to D-K-D-D-P-P (SEQ ID NO: 354) (YVVLVAALTVACNNFFWENS; also: fused to hydrophilic linker D-K-D-D-P-P, end not given here; UniProt P23297 75-94, looked up, fragment) [reference compound]”, the “diastolic calcium spark frequency” value in data set [1] is on record as “decrease calcium spark frequency”. For the compound “DKDDPP-YCVFLSCIAMM (DKDDPPYCVFLSCIAMM; amino acids 75 to 85 of S100A4 fused to a hydrophilic motif) [amino acids 75-85 of S100A4 fused to a hydrophilic motif, reference compound]”, in data set [2], the “inotropic effect (calcium transients)” value was “fail to reproduce S100A1ct6/11 inotropic actions” and the “inotropic effect (calcium transients) under βAR stimulation” value is “neither S100A4ct nor S100Bct mimic S100A1ct6/11 inotropic effects”.

By EC50 is commonly meant the midpoint of the concentration-response curve. Read a low EC50 as higher potency in that assay. Consider `CC(C)C[C@H](NC(=O)[C@H](C)NC(=O)[C@H](C)NC(=O)[C@@H](NC(=O)[C@H](CC(C)C)NC(=O)[C@@H](NC(=O)[C@@H](NC(=O)[C@H](Cc1ccc(O)cc1)NC(=O)[C@@H]1CCCN1C(=O)[C@@H]1CCCN1C(=O)[C@H](CC(=O)O)NC(=O)[C@H](CC(=O)O)NC(=O)[C@H](CCCCN)NC(=O)[C@@H](N)CC(=O)O)C(C)C)C(C)C)C(C)C)C(=O)N[C@H](C(=O)N[C@H](C(=O)N[C@@H](C)C(=O)O)C(C)C)[C@@H](C)O` [S100A1ct6/11, D-K-D-D-P-P-Y-V-V-L-V-A-A-L-T-V-A] (H-DKDDPPYVVLVAALTVA-OH; N-terminus and C-terminus assumed), for which the “ability to permeate the cell membrane of intact cardiomyocytes” value in data set [3] is “cell permeable”. In data set [2], this compound gave an EC50 of 87 ± 6 nM. As to “D-K-D-D-P-P (DKDDPP; hydrophilic motif) [linker, reference compound]”, the “effect on calcium transient amplitudes” value in data set [2] was “do not exhibit the inotropic effect”. With `CC(C)C[C@H](NC(=O)[C@H](C)NC(=O)[C@H](C)NC(=O)[C@@H](NC(=O)[C@H](CC(C)C)NC(=O)[C@@H](NC(=O)[C@@H](NC(=O)[C@@H](N)Cc1ccc(O)cc1)C(C)C)C(C)C)C(C)C)C(=O)N[C@H](C(=O)N[C@H](C(=O)N[C@@H](C)C(=O)N[C@@H](CS)C(=O)N[C@@H](CC(N)=O)C(=O)N[C@@H](CC(N)=O)C(=O)N[C@@H](Cc1ccccc1)C(=O)N[C@@H](Cc1ccccc1)C(=O)N[C@@H](Cc1c[nH]c2ccccc12)C(=O)N[C@@H](CCC(=O)O)C(=O)N[C@@H](CC(N)=O)C(=O)N[C@@H](CO)C(=O)O)C(C)C)[C@@H](C)O` [20-mer S100A1 C-terminal peptide, YVVLVAALTVACNNFFWENS, reference compound] (H-YVVLVAALTVACNNFFWENS-OH; N-terminus and C-terminus assumed), the “ability to permeate the cell membrane of intact cardiomyocytes” value in data set [3] is listed as “cell-impermeable”. In the case of “N-77-85-C: amino acids 77 to 85 of human S100A1 protein set forth in SEQ ID NO: 1 (VLVAALTVA; listed as Homo sapiens)”, the “effect on calcium transient amplitudes” value in data set [2] is recorded as “abolishes the inotropic effect”. “N-79-85-C: amino acids 79 to 85 of human S100A1 protein set forth in SEQ ID NO: 1 (VAALTVA; listed as Homo sapiens)”: the “effect on calcium transient amplitudes” value in data set [2] is listed as “abolishes the inotropic effect”. In the case of “DKDDPP-FMAFVAMVTTA (DKDDPPFMAFVAMVTTA; amino acids 75 to 85 of S100B fused to a hydrophilic motif) [amino acids 75-85 of S100B fused to a hydrophilic motif, reference compound]”, in data set [2], the “inotropic effect (calcium transients)” value is reported as “fail to reproduce S100A1ct6/11 inotropic actions” and the “inotropic effect (calcium transients) under βAR stimulation” value is given as “neither S100A4ct nor S100Bct mimic S100A1ct6/11 inotropic effects”. For the compound “N-78-85-C: amino acids 78 to 85 of human S100A1 protein set forth in SEQ ID NO: 1 (LVAALTVA; listed as Homo sapiens)”, the “effect on calcium transient amplitudes” value in data set [2] is “abolishes the inotropic effect”. For “D-K-D-D-P-P-V-V-L-V-A-A-L-T-V-A (DKDDPPVVLVAALTVA; amino acids 76 to 85 of human S100A1 fused to a hydrophilic motif) [N-76-85-C, amino acids 76 to 85 of human S100A1 fused to a hydrophilic linker (D-K-D-D-P-P)]”, the “effect on calcium transient amplitudes” value in data set [2] (listed as peptide consisting of amino acids 76 to 85 of human S100A1 fused to a hydrophili) is listed as “exerts the same inotropic function as the S100A1ct6/11 peptide”.
